Assay results taken from patent US20090130212A1, “COMPOSITION AND IMPROVED METHOD FOR PREPARATION OF SMALL PARTICLES” (PHYSICAL PHARMACEUTICA, LLC, priority 2006, published 2009).

How the values were obtained:
Type in all cases: physicochemical
[1] = pKa / ionization of ibuprofen; settings: pH of 2
[2] = Aqueous solubility of ibuprofen; settings: pH 2, in 50 ml
[3] = Dissolution of ibuprofen in 0.01N HCl, microdialysis sampling and HPLC (Example 3); settings: 50 ml 0.01N HCl pH 2, 25° C
Protocol: The remaining ether was removed by evaporation at room temperature in a vacuum oven at less than 10 torr, for 2 hours.

fraction unionized [1]: more than 99% | amount dissolved corresponding to solubility [2]: 4000 µg | amount of ibuprofen dissolved ([3]; after five minutes): approximately 790 mcg | amount of ibuprofen dissolved ([3]; after one minute): approximately 190 mcg | amount of ibuprofen dissolved ([3]; after two minutes): approximately 350 mcg
SMILES: CC(C)Cc1ccc(C(C)C(=O)O)cc1 (centres unmarked) [pure ibuprofen, ibuprofen]
